# Laboratory results: patent publication US12582722B2, “Bifunctional compounds for degrading BTK via ubiquitin proteosome pathway” (NURIX THERAPEUTICS, INC., priority 2019, dated 2026)
# Target: T1, BTK (Homo sapiens, UniProt Q06187)
# T1 construct: endogenous in cells; host or cells: Ramos (ATCC CRL-1596)
# Test: Cellular BTK HTRF Assay (BTK degradation in Ramos cells)
# Format: cell-based
# Settings: four hours incubation, 37° C., BTK levels relative to DMSO-treated cells
# Protocol: Ramos (CRL-1596) cells were obtained from American Type Culture Collection and were grown in RPMI-1640 media (ATCC, 30-2001) supplemented with 10% heat-inactivated FBS (Corning Premium Fetal Bovine Serum from Fisher, MT35015CV).
# Compounds of the present invention were added to 50,000 Ramos cells in round-bottom 96 well plates with a final DMSO concentration of […] and were incubated at 37° C., 5% CO2 for four hours. BTK levels were determined using Cisbio Total-BTK HTRF ([…] Time-Resolved Fluorescence) kit (63ADK064PEG) according to manufacturer's protocol. Briefly, cells were incubated in 1× supplied lysis buffer for 30 minutes. In an opaque white low volume 96 well plate (Cisbio, 66PL96005), cell lysate was combined with two different specific BTK antibodies, one conjugated with Eu^3+-Cryptate FRET donor and one conjugated with d2 FRET acceptor. Assay controls include wells containing cell lysate with only the Eu^3+-Cryptate FRET donor antibody and wells containing both HTRF antibodies and lysis buffer without cells or control lysate provided by Cisbio. HTRF ratio was calculated as (acceptor signal at 665 nm/donor signal at 620 nm)×10^4. Background HTRF levels were determined from the control well containing the donor, but no acceptor, antibody. Background HTRF levels were subtracted from all samples. Readouts were reported as HTRF levels relative to HTRF levels of DMSO-treated cells. Four-parameter non-linear regressions were performed in GraphPad Prism 7.02 to obtain DC50 values. DC50 values are provided in Table 3, wherein A<7.5 nM, 7.5 nM≤B≤50 nM, and 50 nM<C<500 nM.
# T1 sequence (Q06187 whole entry): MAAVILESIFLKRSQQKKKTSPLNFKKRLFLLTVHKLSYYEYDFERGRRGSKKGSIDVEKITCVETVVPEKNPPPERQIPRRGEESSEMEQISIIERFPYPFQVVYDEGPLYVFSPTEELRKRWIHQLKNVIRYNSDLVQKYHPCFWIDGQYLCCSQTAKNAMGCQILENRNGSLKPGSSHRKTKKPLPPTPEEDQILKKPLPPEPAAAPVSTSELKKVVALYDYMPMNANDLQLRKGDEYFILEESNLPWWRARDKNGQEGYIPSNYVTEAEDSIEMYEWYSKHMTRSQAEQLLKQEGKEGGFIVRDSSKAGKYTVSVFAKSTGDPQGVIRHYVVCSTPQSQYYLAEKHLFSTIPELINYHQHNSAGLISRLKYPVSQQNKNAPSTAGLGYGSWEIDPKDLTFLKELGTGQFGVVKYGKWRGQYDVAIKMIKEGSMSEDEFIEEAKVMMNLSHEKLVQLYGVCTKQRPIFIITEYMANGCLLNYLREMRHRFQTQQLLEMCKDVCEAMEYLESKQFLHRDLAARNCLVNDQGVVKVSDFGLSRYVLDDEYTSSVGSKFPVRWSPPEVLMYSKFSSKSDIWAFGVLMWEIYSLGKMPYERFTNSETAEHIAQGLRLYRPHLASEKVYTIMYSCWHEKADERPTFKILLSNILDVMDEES
row,Compound,DC50
1,"CS(=O)(=O)c1ccc(Nc2nc(N3CCC[C@@H](NC(=O)C4CC5CCC(C4)N5CC4CCN(c5ccc6c(c5)C(=O)N(C5CCC(=O)NC5=O)C6=O)CC4)C3)cnc2C(N)=O)cc1 (stereo partly drawn) [Compound 34, (1R,3s,5S)—N—((R)-1-(5-carbamoyl-6-((4-(methylsulfonyl)phenyl)amino)pyrazin-2-yl)piperidin-3-yl)-8-((1-(2-(2,6-dioxopiperidin-3-yl)-1,3-dioxoisoindolin-5-yl)piperidin-4-yl)methyl)-8-azabicyclo[3.2.1]octane-3-carboxamide]",7.5 to 50 nM
2,"CS(=O)(=O)c1ccc(Nc2nc(N3CCC[C@@H](NC(=O)[C@H]4[C@@H]5CN(C6CCN(c7ccc8c(c7)C(=O)N(C7CCC(=O)NC7=O)C8=O)CC6)C[C@@H]54)C3)cnc2C(N)=O)cc1 (stereo partly drawn) [Compound 35, (1R,5S,6r)-N—((R)-1-(5-carbamoyl-6-((4-(methylsulfonyl)phenyl)amino)pyrazin-2-yl)piperidin-3-yl)-3-(1-(2-(2,6-dioxopiperidin-3-yl)-1,3-dioxoisoindolin-5-yl)piperidin-4-yl)-3-azabicyclo[3.1.0]hexane-6-carboxamide]",7.5 to 50 nM
3,"CS(=O)(=O)c1ccc(Nc2nc(N3CCC[C@@H](NC(=O)C4CCC5(CC4)CCN(c4ccc6c(c4)C(=O)N(C4CCC(=O)NC4=O)C6=O)CC5)C3)cnc2C(N)=O)cc1 (stereo partly drawn) [Compound 36, N-[(3R)-1-{5-carbamoyl-6-[(4-methanesulfonylphenyl)amino]pyrazin-2-yl}piperidin-3-yl]-3-[2-(2,6-dioxopiperidin-3-yl)-1,3-dioxoisoindol-5-yl]-3-azaspiro[5.5]undecane-9-carboxamide]",< 7.5 nM
4,"Cc1cc(Nc2nc(N3CCC[C@@H](NC(=O)C4CCN(C5CN(Cc6ccc7c(c6)C(=O)N(C6CCC(=O)NC6=O)C7=O)C5)CC4)C3)cnc2C(N)=O)sn1 (stereo partly drawn) [Compound 37, 5-[(3R)-3-[1-(1-{[2-(2,6-dioxopiperidin-3-yl)-1,3-dioxoisoindol-5-yl]methyl}azetidin-3-yl)piperidine-4-amido]piperidin-1-yl]-3-[(3-methyl-1,2-thiazol-5-yl)amino]pyrazine-2-carboxamide]",< 7.5 nM
5,"Cc1cc(Nc2nc(N3CCC[C@@H](NC(=O)C4CCN(C5CN(c6ccc7c(c6)C(=O)N(C6CCC(=O)NC6=O)C7=O)C5)CC4)C3)cnc2C(N)=O)sn1 (stereo partly drawn) [Compound 38, 5-((3R)-3-(1-(1-(2-(2,6-dioxopiperidin-3-yl)-1,3-dioxoisoindolin-5-yl)azetidin-3-yl)piperidine-4-carboxamido)piperidin-1-yl)-3-((3-methylisothiazol-5-yl)amino)pyrazine-2-carboxamide]",7.5 to 50 nM
6,"Cc1cc(Nc2nc(N3CCC[C@@H](NC(=O)C4CCN(C5CCN(c6ccc7c(c6)C(=O)N(C6CCC(=O)NC6=O)C7=O)CC5)CC4)C3)cnc2C(N)=O)sn1 (stereo partly drawn) [Compound 39, N—((R)-1-(5-carbamoyl-6-((3-methylisothiazol-5-yl)amino)pyrazin-2-yl)piperidin-3-yl)-1′-(2-(2,6-dioxopiperidin-3-yl)-1,3-dioxoisoindolin-5-yl)-[1,4′-bipiperidine]-4-carboxamide]",< 7.5 nM
7,"CS(=O)(=O)c1ccc(Nc2nc(N3CCC[C@@H](NC(=O)C4CCN(C5CCN(c6ccc7c(c6)C(=O)N(C6CCC(=O)NC6=O)C7=O)CC5)CC4)C3)cnc2C(N)=O)cc1 (stereo partly drawn) [Compound 40, N—((R)-1-(5-carbamoyl-6-((4-(methylsulfonyl)phenyl)amino)pyrazin-2-yl)piperidin-3-yl)-1′-(2-(2,6-dioxopiperidin-3-yl)-1,3-dioxoisoindolin-5-yl)-[1,4′-bipiperidine]-4-carboxamide]",50 to 500 nM
8,"CS(=O)(=O)c1ccc(Nc2nc(N3CCC[C@@H](NC(=O)C4CC5CCC(C4)N5C4CCN(c5ccc6c(c5)C(=O)N(C5CCC(=O)NC5=O)C6=O)CC4)C3)cnc2C(N)=O)cc1 (stereo partly drawn) [Compound 41, N-[(3R)-1-{5-carbamoyl-6-[(4-methanesulfonylphenyl)amino]pyrazin-2-yl}piperidin-3-yl]-8-{1-[2-(2,6-dioxopiperidin-3-yl)-1,3-dioxoisoindol-5-yl]piperidin-4-yl}-8-azabicyclo[3.2.1]octane-3-carboxamide]",50 to 500 nM
9,"Cn1cc(Nc2nc(N3CCC[C@@H](N4CC5(CN(CC6CN(c7ccc8c(c7)C(=O)N(C7CCC(=O)NC7=O)C8=O)C6)C5)OC4=O)C3)cnc2C(N)=O)cn1 (stereo partly drawn) [Compound 42, 5-((3R)-3-(2-((1-(2-(2,6-dioxopiperidin-3-yl)-1,3-dioxoisoindolin-5-yl)azetidin-3-yl)methyl)-6-oxo-5-oxa-2,7-diazaspiro[3.4]octan-7-yl)piperidin-1-yl)-3-((1-methyl-1H-pyrazol-4-yl)amino)pyrazine-2-carboxamide]",< 7.5 nM
10,"Cn1cc(Nc2nc(N3CCC[C@@H](N4CC5(CN(CC6CCN(c7ccc8c(c7)C(=O)N(C7CCC(=O)NC7=O)C8=O)CC6)C5)OC4=O)C3)cnc2C(N)=O)cn1 (stereo partly drawn) [Compound 43, 5-[(3R)-3-[2-({1-[2-(2,6-dioxopiperidin-3-yl)-1,3-dioxoisoindol-5-yl]piperidin-4-yl}methyl)-6-oxo-5-oxa-2,7-diazaspiro[3.4]octan-7-yl]piperidin-1-yl]-3-[(1-methylpyrazol-4-yl)amino]pyrazine-2-carboxamide]",< 7.5 nM
11,"Cn1cc(Nc2nc(N3CCC[C@@H](N4CC5(CN(C6CCN(c7ccc8c(c7)C(=O)N(C7CCC(=O)NC7=O)C8=O)CC6)C5)OC4=O)C3)cnc2C(N)=O)cn1 (stereo partly drawn) [Compound 44, 5-[(3R)-3-(2-{1-[2-(2,6-dioxopiperidin-3-yl)-1,3-dioxoisoindol-5-yl]piperidin-4-yl}-6-oxo-5-oxa-2,7-diazaspiro[3.4]octan-7-yl)piperidin-1-yl]-3-[(1-methylpyrazol-4-yl)amino]pyrazine-2-carboxamide]",< 7.5 nM
12,"CS(=O)(=O)c1ccc(Nc2nc(N3CCC[C@@H](NC(=O)[C@H]4CCN(CC5CCN(c6ccc7c(c6)C(=O)N(C6CCC(=O)NC6=O)C7=O)CC5)C4)C3)cnc2C(N)=O)cc1 (stereo partly drawn) [Compound 46, 5-[(3R)-3-[1-({1-[2-(2,6-dioxopiperidin-3-yl)-1,3-dioxoisoindol-5-yl]piperidin-4-yl}methyl)pyrrolidine-3-amido]piperidin-1-yl]-3-[(4-methanesulfonylphenyl)amino]pyrazine-2-carboxamide]",7.5 to 50 nM
13,"CS(=O)(=O)c1ccc(Nc2nc(N3CCC[C@@H](NC(=O)CCOCCCc4cccc5c4CN(C4CCC(=O)NC4=O)C5=O)C3)cnc2C(N)=O)cc1 (stereo partly drawn) [Compound 47, 5-[(3R)-3-(3-{3-[2-(2,6-dioxopiperidin-3-yl)-1-oxo-3H-isoindol-4-yl]propoxy}propanamido)piperidin-1-yl]-3-[(4-methanesulfonylphenyl)amino] pyrazine-2-carboxamide]",50 to 500 nM
14,"Cn1cc(Nc2nc(N3CCC[C@@H](N4CCC5(CCN(CC6CCN(c7ccc8c(c7)C(=O)N(C7CCC(=O)NC7=O)C8=O)CC6)CC5)C4=O)C3)cnc2C(N)=O)cn1 (stereo partly drawn) [Compound 48, 5-[(3R)-3-[8-({1-[2-(2,6-dioxopiperidin-3-yl)-1,3-dioxoisoindol-5-yl]piperidin-4-yl}methyl)-1-oxo-2,8-diazaspiro[4.5]decan-2-yl]piperidin-1-yl]-3-[(1-methylpyrazol-4-yl)amino]pyrazine-2-carboxamide]",< 7.5 nM
15,"Cn1cc(Nc2nc(N3CCC[C@@H](N4CCC5(CCN(C6CCN(c7ccc8c(c7)C(=O)N(C7CCC(=O)NC7=O)C8=O)CC6)CC5)C4=O)C3)cnc2C(N)=O)cn1 (stereo partly drawn) [Compound 49, 5-[(3R)-3-(8-{1-[2-(2,6-dioxopiperidin-3-yl)-1,3-dioxoisoindol-5-yl]piperidin-4-yl}-1-oxo-2,8-diazaspiro[4.5]decan-2-yl)piperidin-1-yl]-3-[(1-methylpyrazol-4-yl)amino]pyrazine-2-carboxamide]",< 7.5 nM
16,"Cn1cc(Nc2nc(N3CCC[C@@H](N4CCC5(CCN(CC6CN(c7ccc8c(c7)C(=O)N(C7CCC(=O)NC7=O)C8=O)C6)CC5)C4=O)C3)cnc2C(N)=O)cn1 (stereo partly drawn) [Compound 50, 5-[(3R)-3-[8-({1-[2-(2,6-dioxopiperidin-3-yl)-1,3-dioxoisoindol-5-yl]azetidin-3-yl}methyl)-1-oxo-2,8-diazaspiro[4.5]decan-2-yl]piperidin-1-yl]-3-[(1-methylpyrazol-4-yl)amino]pyrazine-2-carboxamide]",< 7.5 nM
